Laboratory results as given in PubChem BioAssay AID1963443 (Molecular Pharmacology Branch, DTP, NCI, 2024).
“And” between values parts separate entries of the source, which are not always exact repeats. Identical values can stand only once. Values belong to the compound of their own block, whether it stands above or below them.

Tested on: MDA-MB-231 complex spheroids, growth inhibition
Assay: Anticancer human tumor MDA-MB-231 cell line growth inhibition [Asc];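 note: spheroids exposed to compounds for 7 days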
Settings: for viability, T/C: stronger effect = lower value
Summary of the method: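 Tumor cells were grown as complex spheroids with human endothelial cells (HUVEC) and human mesenchymal stem cells as stroma. Agents were tested alone and in combination, in half-log steps down from the clinical Cmax, or from 10 microM where Cmax was unknown.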

[1] = curve of first compound, second compound 0.1 µM
[2] = curve of first compound, second compound 0.316 µM
[3] = curve of first compound, second compound 1 µM
[4] = second compound 0.1 µM, first compound 0.0316 µM
[5] = second compound 0.1 µM, first compound 0.1 µM
[6] = second compound 0.1 µM, first compound 0.316 µM
[7] = second compound 0.1 µM, first compound 1 µM
[8] = second compound 0.316 µM, first compound 0.0316 µM
[9] = second compound 0.316 µM, first compound 0.1 µM
[10] = second compound 0.316 µM, first compound 0.316 µM
[11] = second compound 0.316 µM, first compound 1 µM
[12] = second compound 1 µM, first compound 0.0316 µM
[13] = second compound 1 µM, first compound 0.1 µM
[14] = second compound 1 µM, first compound 0.316 µM
[15] = second compound 1 µM, first compound 1 µM

Compound: CCN1CCN(Cc2ccc(Nc3ncc(F)c(-c4cc(F)c5nc(C)n(C(C)C)c5c4)n3)nc2)CC1 + Cc1c(S(C)(=O)=O)c(-c2cc(F)cc(N3CCN(c4ccc(NS(=O)(=O)c5ccc(NC(CCN6CCC(C(=O)OCCCP(=O)(O)O)CC6)CSc6ccccc6)c(S(=O)(=O)C(F)(F)F)c5)cc4)CC3)c2)c(-c2ccc(Cl)cc2)n1C(C)C
- IC50 [1]: 648 nM
- IC50 [2]: > 1000 nM
- IC50 [3]: 306 nM
- IC50 (curve of first compound, second compound 3.16 µM): 258 nM
- IC50 (curve of first compound, second compound 10 µM): 308 nM
- viability, T/C (second compound 0.1 µM, first compound 0.00316 µM): 97.4%
- viability, T/C (second compound 0.1 µM, first compound 0.01 µM): 97.9%
- viability, T/C [4]: 84%
- viability, T/C [5]: 65.6%
- viability, T/C [6]: 47.9%
- viability, T/C [7]: 51.5%
- viability, T/C (second compound 0.316 µM, first compound 0.00316 µM): 103%
- viability, T/C (second compound 0.316 µM, first compound 0.01 µM): 95.4%
- viability, T/C [8]: 84.9%
- viability, T/C [9]: 64.8%
- viability, T/C [10]: 49.7%
- viability, T/C [11]: 53.1%
- viability, T/C (second compound 1 µM, first compound 0.00316 µM): 98.1%
- viability, T/C (second compound 1 µM, first compound 0.01 µM): 93.2%
- viability, T/C [12]: 87.7%
- viability, T/C [13]: 67.6%
- viability, T/C [14]: 49.5%
- viability, T/C [15]: 42.1%
- viability, T/C (second compound 3.16 µM, first compound 0.00316 µM): 95.9%
- viability, T/C (second compound 3.16 µM, first compound 0.01 µM): 91.9%
- viability, T/C (second compound 3.16 µM, first compound 0.0316 µM): 83.8%
- viability, T/C (second compound 3.16 µM, first compound 0.1 µM): 63.8%
- viability, T/C (second compound 3.16 µM, first compound 0.316 µM): 47.7%
- viability, T/C (second compound 3.16 µM, first compound 1 µM): 36.5%
- viability, T/C (second compound 10 µM, first compound 0.00316 µM): 104%
- viability, T/C (second compound 10 µM, first compound 0.01 µM): 97.7%
- viability, T/C (second compound 10 µM, first compound 0.0316 µM): 93.6%
- viability, T/C (second compound 10 µM, first compound 0.1 µM): 76.9%
- viability, T/C (second compound 10 µM, first compound 0.316 µM): 48.7%
- viability, T/C (second compound 10 µM, first compound 1 µM): 32.2%

Compound: C=C(F)C(=O)N1CCN(c2nc(OCC3CCCN3C)nc3c2CCN(c2cccc4cccc(Cl)c24)C3)CC1CC#N (stereo unspecified) + CNC(C)C(=O)NC1CN(S(=O)(=O)c2cccc(S(=O)(=O)N3CCC4CCC(C(=O)NC(c5ccccc5)c5ccccc5)N4C(=O)C(NC(=O)C(C)NC)C3)c2)CCC2CCC(C(=O)NC(c3ccccc3)c3ccccc3)N2C1=O
- IC50 (curve of first compound, second compound 0.01 µM): < 31.6 nM
- IC50 (curve of first compound, second compound 0.0316 µM): < 31.6 nM
- IC50 [1]: < 31.6 nM
- IC50 [2]: < 31.6 nM
- IC50 [3]: < 31.6 nM
- viability, T/C (second compound 0.01 µM, first compound 0.0316 µM): 1.99%
- viability, T/C (second compound 0.01 µM, first compound 0.1 µM): 2.81%
- viability, T/C (second compound 0.01 µM, first compound 0.316 µM): 1.5%
- viability, T/C (second compound 0.01 µM, first compound 1 µM): 1.02%
- viability, T/C (second compound 0.01 µM, first compound 3.16 µM): 0.39%
- viability, T/C (second compound 0.01 µM, first compound 10 µM): 0.09%
- viability, T/C (second compound 0.0316 µM, first compound 0.0316 µM): 1.12%
- viability, T/C (second compound 0.0316 µM, first compound 0.1 µM): 2.63%
- viability, T/C (second compound 0.0316 µM, first compound 0.316 µM): 1.75%
- viability, T/C (second compound 0.0316 µM, first compound 1 µM): 1.07%
- viability, T/C (second compound 0.0316 µM, first compound 3.16 µM): 0.75%
- viability, T/C (second compound 0.0316 µM, first compound 10 µM): 0.93%
- viability, T/C [4]: 0.94%
- viability, T/C [5]: 1.79%
- viability, T/C [6]: 1.68%
- viability, T/C [7]: 0.86%
- viability, T/C (second compound 0.1 µM, first compound 3.16 µM): 0.38%
- viability, T/C (second compound 0.1 µM, first compound 10 µM): 0.08%
- viability, T/C [8]: 0.86%
- viability, T/C [9]: 1.12%
- viability, T/C [10]: 1.54%
- viability, T/C [11]: 1.37%
- viability, T/C (second compound 0.316 µM, first compound 3.16 µM): 0.42%
- viability, T/C (second compound 0.316 µM, first compound 10 µM): 0.08%
- viability, T/C [12]: 1.4%
- viability, T/C [13]: 1.56%
- viability, T/C [14]: 1.18%
- viability, T/C [15]: 1.49%
- viability, T/C (second compound 1 µM, first compound 3.16 µM): 0.43%
- viability, T/C (second compound 1 µM, first compound 10 µM): 0.98%

Compound: CCN1CCN(Cc2ccc(Nc3ncc(F)c(-c4cc(F)c5nc(C)n(C(C)C)c5c4)n3)nc2)CC1 + CCN1C(C(=O)NC23CCC(C(=O)O)(CC2)CC3)C(c2cccc(Cl)c2F)C2(C(=O)Nc3cc(Cl)ccc32)C12CCCCC2
- IC50 (curve of first compound, second compound 0.03 µM): 305 nM
- IC50 (curve of first compound, second compound 0.0949 µM): 479 nM
- IC50 (curve of first compound, second compound 0.3 µM): > 1000 nM
- IC50 (curve of first compound, second compound 0.949 µM): > 1000 nM
- IC50 (curve of first compound, second compound 3 µM): > 1000 nM
- viability, T/C (second compound 0.03 µM, first compound 0.00316 µM): 102%
- viability, T/C (second compound 0.03 µM, first compound 0.01 µM): 94.3%
- viability, T/C (second compound 0.03 µM, first compound 0.0316 µM): 76.6%
- viability, T/C (second compound 0.03 µM, first compound 0.1 µM): 59%
- viability, T/C (second compound 0.03 µM, first compound 0.316 µM): 49.8%
- viability, T/C (second compound 0.03 µM, first compound 1 µM): 46.6%
- viability, T/C (second compound 0.0949 µM, first compound 0.00316 µM): 109%
- viability, T/C (second compound 0.0949 µM, first compound 0.01 µM): 98.8%
- viability, T/C (second compound 0.0949 µM, first compound 0.0316 µM): 79.7%
- viability, T/C (second compound 0.0949 µM, first compound 0.1 µM): 61.8%
- viability, T/C (second compound 0.0949 µM, first compound 0.316 µM): 50.5%
- viability, T/C (second compound 0.0949 µM, first compound 1 µM): 48.1%
- viability, T/C (second compound 0.3 µM, first compound 0.00316 µM): 103%
- viability, T/C (second compound 0.3 µM, first compound 0.01 µM): 99.9%
- viability, T/C (second compound 0.3 µM, first compound 0.0316 µM): 86.9%
- viability, T/C (second compound 0.3 µM, first compound 0.1 µM): 67%
- viability, T/C (second compound 0.3 µM, first compound 0.316 µM): 55%
- viability, T/C (second compound 0.3 µM, first compound 1 µM): 52.7%
- viability, T/C (second compound 0.949 µM, first compound 0.00316 µM): 105%
- viability, T/C (second compound 0.949 µM, first compound 0.01 µM): 101%
- viability, T/C (second compound 0.949 µM, first compound 0.0316 µM): 85.5%
- viability, T/C (second compound 0.949 µM, first compound 0.1 µM): 67.2%
- viability, T/C (second compound 0.949 µM, first compound 0.316 µM): 52.8%
- viability, T/C (second compound 0.949 µM, first compound 1 µM): 53%
- viability, T/C (second compound 3 µM, first compound 0.00316 µM): 94.8%
- viability, T/C (second compound 3 µM, first compound 0.01 µM): 86.6%
- viability, T/C (second compound 3 µM, first compound 0.0316 µM): 73.6%
- viability, T/C (second compound 3 µM, first compound 0.1 µM): 54.5%
- viability, T/C (second compound 3 µM, first compound 0.316 µM): 49.1%
- viability, T/C (second compound 3 µM, first compound 1 µM): 52.6%

Compound: CCN1C(C(=O)NC23CCC(C(=O)O)(CC2)CC3)C(c2cccc(Cl)c2F)C2(C(=O)Nc3cc(Cl)ccc32)C12CCCCC2 (stereo unspecified)
- viability, T/C (compound 0.00949 µM): 96.1% and 106%
- viability, T/C (compound 0.03 µM): 97.5% [middle of 15 runs]
- viability, T/C (compound 0.0949 µM): 104% [middle of 15 runs]
- viability, T/C (compound 0.3 µM): 105% [middle of 15 runs]
- viability, T/C (compound 0.949 µM): 112% [middle of 15 runs]
- IC50 (compound alone, run of 10/11/2022): > 3000 nM
- IC50 (curve of compound): > 3000 nM

The next lines start with results.

- IC50 (curve of compound): 82.5 nM and 91.6 nM and 226 nM
Compound: COc1c(OCCCN2CCOCC2)ccc2c3n(c(=NC(=O)c4cnc(N)nc4)nc12)CCN3
- viability, T/C (compound 0.00316 µM): 83.7% and 92% and 96.1%
- viability, T/C (compound 0.01 µM): 85.2% and 80.5% and 92.2%
- viability, T/C (compound 0.0316 µM): 64.8% and 66.8% and 75.9%
- viability, T/C (compound 0.1 µM): 47.6% and 48.4% and 60%
- viability, T/C (compound 0.316 µM): 36.6% and 36.7% and 45.5%
- viability, T/C (compound 1 µM): 32% and 32.1% and 41.6%

- IC50 (curve of compound): 386 nM and 285 nM and 373 nM
Compound: Cc1nc(N2CCC3(CC2)COC(C)C3N)c(CO)nc1Sc1ccnc(N)c1Cl (stereo unspecified)
- viability, T/C (compound 0.00949 µM): 122% and 98.3% and 98%
- viability, T/C (compound 0.03 µM): 117% and 93.5% and 101%
- viability, T/C (compound 0.0949 µM): 111% and 94.2% and 94.4%
- viability, T/C (compound 0.3 µM): 63.3% and 47.9% and 61.2%
- viability, T/C (compound 0.949 µM): 3.21% and 2.3% and 2.69%
- viability, T/C (compound 3 µM): 0.89% and 1.08% and 0.76%
